{"source": "patent US6812028B1", "about": "“Embryogenesis and plant regeneration from microspores” (University of Guelph, priority 1999, dated 2004)", "assay_type_in_all_cases": "cell-based", "key": {"[1]": {"system": "wheat microspores cv Pavon 79", "test": "Regeneration of plants from wheat microspores with AGP in induction media MMS4", "settings": "for # of plants Albino / # of plants Total / # of plants green / % of green plants / % of regen.: 250 embryos transferred to regeneration medium; for Total # of embryos: induction media MMS4, cv Pavon 79", "description": "(§1) The effect of AGP on embryogenesis and plant regeneration was assessed in wheat microspores which were isolated from genotype Pavon 79 according to the method of the present invention. AGP levels of 0, 1, 5, and 10 mg/liter were tested. […] Additionally, the data illustrates the presence of ovaries in co-culture enhanced embryogenesis and plant regeneration. Only at 10 mg/liter of AGP was significant embryogenesis observed in the absence of ovary co-culture. FIG. 5(a) illustrates the comparative response of wheat microspores to the presence or absence of wheat ovaries and 0 or 10 mg/L AGP. FIG. 6 illustrates the good embryo structure developed in wheat after 4 weeks on medium with ovaries and AGP."}, "[2]": {"system": "wheat isolated microspores cv Pavon 79", "test": "Response of wheat isolated microspore cultures to AGP levels in MMS4 medium, with and without ovaries", "settings": "MMS4, cv Pavon 79", "description": "as §1, with “tested. [table]” for “tested.”"}, "[3]": {"system": "barley cv Igri isolated microspores", "test": "AGP effect on barley isolated microspore development in liquid FHG medium", "settings": "after 10 days", "excerpt": "The effect of AGP concentration during embryogenic induction of barley microspores in culture was examined. A wide range of concentrations was applied to microspores […]. The AGP addition was effected by adding varying AGP concentrations in liquid FHG medium with 10^5 microspores onto solid FGH medium. Using a drop of microspores on solidified MFHG medium, structures were counted under an inverted microscope. The proportion of alive and dead microspores was not estimated in these plates, but the developing microspores were much higher in the 0 mg control compared to wheat. Thus, the difference in response of barley to AGP at day 10 is not as pronounced as in wheat."}, "[4]": {"system": "wheat (cv. Pavon 76) microspores", "test": "Influence of regeneration media on plant development from wheat microspores", "settings": "AGP in regeneration media", "description": "A comparison of regeneration media composition was conducted for wheat microspores induced on a medium in the presence and absence AGP. The regeneration medium was based on MMS4 medium having either 3% sucrose or 9% maltose as a sugar source, or in an AGP-containing medium based on MMS4 with 9% maltose. The microspores were either induced on a support, in this case, a Watman #2 filter disk, or were placed on a solid media in liquid drops. […] Sucrose within the regeneration media was effective in producing a high percentage of green plants, however maltose was also found to be effective. Without wishing to be bound by theory, this may be due to the quicker release of energy from sucrose that is required for regeneration."}}, "data": [{"substance": "arabinogalactan protein [AGP]", "values": [{"measurement": "# of plants Albino", "setting": "[1]; AGP 1 mg/L with ovaries", "result": 70}, {"measurement": "# of plants Total", "setting": "[1]; AGP 1 mg/L with ovaries", "result": 118}, {"measurement": "# of plants green", "setting": "[1]; AGP 1 mg/L with ovaries", "result": 48}, {"measurement": "% of green plants", "setting": "[1]; AGP 1 mg/L with ovaries", "result": 41, "unit": "%"}, {"measurement": "% of regen.", "setting": "[1]; AGP 1 mg/L with ovaries", "result": 47, "unit": "%"}, {"measurement": "Total # of embryos", "setting": "[1]; AGP 1 mg/L with ovaries", "result": 2130}, {"measurement": "# of plants Albino", "setting": "[1]; AGP 5 mg/L with ovaries", "result": 70}, {"measurement": "# of plants Total", "setting": "[1]; AGP 5 mg/L with ovaries", "result": 120}, {"measurement": "# of plants green", "setting": "[1]; AGP 5 mg/L with ovaries", "result": 50}, {"measurement": "% of green plants", "setting": "[1]; AGP 5 mg/L with ovaries", "result": 42, "unit": "%"}, {"measurement": "% of regen.", "setting": "[1]; AGP 5 mg/L with ovaries", "result": 48, "unit": "%"}, {"measurement": "Total # of embryos", "setting": "[1]; AGP 5 mg/L with ovaries", "result": 3393}, {"measurement": "# of plants Albino", "setting": "[1]; AGP 10 mg/L with ovaries", "result": 60}, {"measurement": "# of plants Total", "setting": "[1]; AGP 10 mg/L with ovaries", "result": 189}, {"measurement": "# of plants green", "setting": "[1]; AGP 10 mg/L with ovaries", "result": 129}, {"measurement": "% of green plants", "setting": "[1]; AGP 10 mg/L with ovaries", "result": 68, "unit": "%"}, {"measurement": "% of regen.", "setting": "[1]; AGP 10 mg/L with ovaries", "result": 76, "unit": "%"}, {"measurement": "Total # of embryos", "setting": "[1]; AGP 10 mg/L with ovaries", "result": 4250}, {"measurement": "embryogenesis, regeneration and % green plant production", "setting": "[1]; addition of 10 mg/L of AGP, genotype Pavon 79", "result": "significant improvement"}, {"measurement": "# alive and dividing d 10", "setting": "[2]; AGP 1 mg/L, ovary +", "result": 22605}, {"measurement": "# alive not dividing d 10", "setting": "[2]; AGP 1 mg/L, ovary +", "result": 2805}, {"measurement": "# dead microspores d 10", "setting": "[2]; AGP 1 mg/L, ovary +", "result": 47175}, {"measurement": "# embryos 30 days", "setting": "[2]; AGP 1 mg/L, ovary +", "result": 2130}, {"measurement": "# multicell burst d 10", "setting": "[2]; AGP 1 mg/L, ovary +", "result": 1072}, {"measurement": "# multicellular d 10", "setting": "[2]; AGP 1 mg/L, ovary +", "result": 18500}, {"measurement": "# alive and dividing d 10", "setting": "[2]; AGP 1 mg/L, ovary −", "result": 22125}, {"measurement": "# alive not dividing d 10", "setting": "[2]; AGP 1 mg/L, ovary −", "result": 5650}, {"measurement": "# dead microspores d 10", "setting": "[2]; AGP 1 mg/L, ovary −", "result": 47558}, {"measurement": "# embryos 30 days", "setting": "[2]; AGP 1 mg/L, ovary −", "result": 0}, {"measurement": "# multicell burst d 10", "setting": "[2]; AGP 1 mg/L, ovary −", "result": 400}, {"measurement": "# multicellular d 10", "setting": "[2]; AGP 1 mg/L, ovary −", "result": 13750}, {"measurement": "# alive and dividing d 10", "setting": "[2]; AGP 5 mg/L, ovary +", "result": 18272}, {"measurement": "# alive not dividing d 10", "setting": "[2]; AGP 5 mg/L, ovary +", "result": 7600}, {"measurement": "# dead microspores d 10", "setting": "[2]; AGP 5 mg/L, ovary +", "result": 30250}, {"measurement": "# embryos 30 days", "setting": "[2]; AGP 5 mg/L, ovary +", "result": 3393}, {"measurement": "# multicell burst d 10", "setting": "[2]; AGP 5 mg/L, ovary +", "result": 7080}, {"measurement": "# multicellular d 10", "setting": "[2]; AGP 5 mg/L, ovary +", "result": 39078}, {"measurement": "# alive and dividing d 10", "setting": "[2]; AGP 5 mg/L, ovary −", "result": 26152}, {"measurement": "# alive not dividing d 10", "setting": "[2]; AGP 5 mg/L, ovary −", "result": 8275}, {"measurement": "# dead microspores d 10", "setting": "[2]; AGP 5 mg/L, ovary −", "result": 34500}, {"measurement": "# embryos 30 days", "setting": "[2]; AGP 5 mg/L, ovary −", "result": 0}, {"measurement": "# multicell burst d 10", "setting": "[2]; AGP 5 mg/L, ovary −", "result": 742}, {"measurement": "# multicellular d 10", "setting": "[2]; AGP 5 mg/L, ovary −", "result": 28345}, {"measurement": "# alive and dividing d 10", "setting": "[2]; AGP 10 mg/L, ovary +", "result": 8500}, {"measurement": "# alive not dividing d 10", "setting": "[2]; AGP 10 mg/L, ovary +", "result": 0}, {"measurement": "# dead microspores d 10", "setting": "[2]; AGP 10 mg/L, ovary +", "result": 23550}, {"measurement": "# embryos 30 days", "setting": "[2]; AGP 10 mg/L, ovary +", "result": 4250}, {"measurement": "# multicell burst d 10", "setting": "[2]; AGP 10 mg/L, ovary +", "result": 15452}, {"measurement": "# multicellular d 10", "setting": "[2]; AGP 10 mg/L, ovary +", "result": 68000}, {"measurement": "# alive and dividing d 10", "setting": "[2]; AGP 10 mg/L, ovary −", "result": 33275}, {"measurement": "# alive not dividing d 10", "setting": "[2]; AGP 10 mg/L, ovary −", "result": 6250}, {"measurement": "# dead microspores d 10", "setting": "[2]; AGP 10 mg/L, ovary −", "result": 24650}, {"measurement": "# embryos 30 days", "setting": "[2]; AGP 10 mg/L, ovary −", "result": 50}, {"measurement": "# multicell burst d 10", "setting": "[2]; AGP 10 mg/L, ovary −", "result": 4620}, {"measurement": "# multicellular d 10", "setting": "[2]; AGP 10 mg/L, ovary −", "result": 41950}, {"measurement": "Dividing within microspore", "setting": "[3]; AGP 2 mg/L", "result": 39600}, {"measurement": "Free Multicellulars", "setting": "[3]; AGP 2 mg/L", "result": 33550}, {"measurement": "Total Developing", "setting": "[3]; AGP 2 mg/L", "result": 73150}, {"measurement": "Dividing within microspore", "setting": "[3]; AGP 5 mg/L", "result": 43000}, {"measurement": "Free Multicellulars", "setting": "[3]; AGP 5 mg/L", "result": 38230}, {"measurement": "Total Developing", "setting": "[3]; AGP 5 mg/L", "result": 81230}, {"measurement": "Dividing within microspore", "setting": "[3]; AGP 10 mg/L", "result": 45280}, {"measurement": "Free Multicellulars", "setting": "[3]; AGP 10 mg/L", "result": 35750}, {"measurement": "Total Developing", "setting": "[3]; AGP 10 mg/L", "result": 81030}, {"measurement": "Dividing within microspore", "setting": "[3]; AGP 25 mg/L", "result": 39880}, {"measurement": "Free Multicellulars", "setting": "[3]; AGP 25 mg/L", "result": 36030}, {"measurement": "Total Developing", "setting": "[3]; AGP 25 mg/L", "result": 75910}, {"measurement": "Dividing within microspore", "setting": "[3]; AGP 50 mg/L", "result": 37120}, {"measurement": "Free Multicellulars", "setting": "[3]; AGP 50 mg/L", "result": 39880}, {"measurement": "Total Developing", "setting": "[3]; AGP 50 mg/L", "result": 77000}, {"measurement": "Dividing within microspore", "setting": "[3]; AGP 100 mg/L", "result": 42900}, {"measurement": "Free Multicellulars", "setting": "[3]; AGP 100 mg/L", "result": 37730}, {"measurement": "Total Developing", "setting": "[3]; AGP 100 mg/L", "result": 80630}, {"measurement": "Dividing within microspore", "setting": "[3]; AGP 500 mg/L", "result": 35890}, {"measurement": "Free Multicellulars", "setting": "[3]; AGP 500 mg/L", "result": 37810}, {"measurement": "Total Developing", "setting": "[3]; AGP 500 mg/L", "result": 73700}, {"measurement": "Dividing within microspore", "setting": "[3]; AGP 1000 mg/L", "result": 38500}, {"measurement": "Free Multicellulars", "setting": "[3]; AGP 1000 mg/L", "result": 41600}, {"measurement": "Total Developing", "setting": "[3]; AGP 1000 mg/L", "result": 80100}, {"measurement": "effect of addition of AGP to the regeneration media on green plants", "setting": "[4]", "result": "reduced the number of green plants produced"}]}]}
